14 compounds from patent publication US20180194762A1 (Pharmacyclics LLC, priority 2017, published 2018) can be followed below.

SMILES strings stand for the structures. Read-outs that look alike come from different tables or passages of the source.

What all share (format): biochemical
For one assay, the target named is T1, TEC (Homo sapiens, UniProt P42680).
T1 sequence (P42680 1-631): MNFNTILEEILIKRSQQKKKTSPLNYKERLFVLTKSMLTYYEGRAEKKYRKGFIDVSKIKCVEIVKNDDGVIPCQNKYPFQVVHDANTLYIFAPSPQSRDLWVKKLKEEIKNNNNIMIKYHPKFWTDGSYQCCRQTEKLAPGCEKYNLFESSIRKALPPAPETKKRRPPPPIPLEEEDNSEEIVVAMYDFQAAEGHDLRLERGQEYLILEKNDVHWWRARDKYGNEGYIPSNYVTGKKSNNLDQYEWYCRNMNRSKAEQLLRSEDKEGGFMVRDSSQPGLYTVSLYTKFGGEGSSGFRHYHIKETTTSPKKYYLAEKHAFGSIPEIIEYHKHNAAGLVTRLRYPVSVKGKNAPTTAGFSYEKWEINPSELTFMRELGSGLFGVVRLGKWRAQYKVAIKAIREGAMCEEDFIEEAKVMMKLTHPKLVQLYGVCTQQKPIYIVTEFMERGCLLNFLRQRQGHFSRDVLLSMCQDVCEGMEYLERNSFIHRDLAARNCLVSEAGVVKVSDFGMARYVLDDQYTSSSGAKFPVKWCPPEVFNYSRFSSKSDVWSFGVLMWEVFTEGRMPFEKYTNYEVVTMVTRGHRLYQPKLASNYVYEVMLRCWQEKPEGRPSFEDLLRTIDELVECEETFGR
In words: Inhibition of a panel of kinases (in vitro HotSpot kinase assay, 33P-ATP, 1 μM ATP). The settings on record: for IC50: HotSpot kinase assay, 1 μM ATP; for TEC/Btk: ratio of TEC IC50 to Btk IC50 (selectivity). The method, boiled down: (§1)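 Radiometric read-out: 33P transfer to a suitable substrate by each purified enzyme, ATP at 1 μM. Values are degree of inhibition.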

In another assay the target is T2, Btk (Homo sapiens, UniProt Q06187).
T2 construct: purified from insect cells as a full-length construct containing a N-terminal 6X-His tag; His6 (N); made in house; host or cells: insect cells (Method C)
Description: Btk in vitro inhibitory activity (one of Method A TR-FRET, Method B electrophoretic mobility shift, Method C radiometric filter binding). The method, boiled down:
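Three alternative formats were used. A radiometric filter-binding read used 8 nM full-length His-BTK with 0.2 mg/mL poly(Glu-Tyr) 4:1 (C); microfluidic separation of 1 μM FAM-peptide by 1 nM BTK gave IC50 from 12-point curves (B); TR-FRET at Km ATP, 0.5 nM Btk, gave Ki(app)-derived IC50 (A).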

The target in the next assay is T3, panel of kinases (Homo sapiens, UniProt P51813).
T3 sequence (P51813 1-675): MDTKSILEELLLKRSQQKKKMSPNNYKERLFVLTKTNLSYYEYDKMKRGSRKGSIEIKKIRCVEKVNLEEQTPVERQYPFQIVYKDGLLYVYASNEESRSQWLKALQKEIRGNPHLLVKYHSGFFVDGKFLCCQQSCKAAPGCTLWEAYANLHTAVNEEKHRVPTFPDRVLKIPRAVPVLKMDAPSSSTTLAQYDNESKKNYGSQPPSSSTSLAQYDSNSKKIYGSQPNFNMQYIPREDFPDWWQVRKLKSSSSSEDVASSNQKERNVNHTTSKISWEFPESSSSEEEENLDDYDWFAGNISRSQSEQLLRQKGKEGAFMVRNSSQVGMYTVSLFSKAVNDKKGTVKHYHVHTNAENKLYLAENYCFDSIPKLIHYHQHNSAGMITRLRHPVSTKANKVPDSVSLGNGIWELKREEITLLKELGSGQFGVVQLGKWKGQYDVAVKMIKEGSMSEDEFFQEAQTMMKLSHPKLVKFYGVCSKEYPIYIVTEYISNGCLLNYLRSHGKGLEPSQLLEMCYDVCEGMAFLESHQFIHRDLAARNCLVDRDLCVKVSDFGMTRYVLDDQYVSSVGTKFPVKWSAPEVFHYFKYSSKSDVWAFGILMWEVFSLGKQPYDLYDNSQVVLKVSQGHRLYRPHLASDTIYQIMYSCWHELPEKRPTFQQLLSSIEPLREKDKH
Description: Inhibition of a panel of kinases (in vitro HotSpot kinase assay, 33P-ATP, 1 μM ATP), other kinases. The settings on record: BMX wild-type, read-out: BMX-WT IC50. The procedure, abridged:
as §1

Setting [1] is: wild-type Btk, read-out: Btk-WT IC50.
The mark [2] stands for this setting: method is one of A, B or C, not stated which, read-out: IC50 values against Btk.

T2 sequence (Q06187 whole entry): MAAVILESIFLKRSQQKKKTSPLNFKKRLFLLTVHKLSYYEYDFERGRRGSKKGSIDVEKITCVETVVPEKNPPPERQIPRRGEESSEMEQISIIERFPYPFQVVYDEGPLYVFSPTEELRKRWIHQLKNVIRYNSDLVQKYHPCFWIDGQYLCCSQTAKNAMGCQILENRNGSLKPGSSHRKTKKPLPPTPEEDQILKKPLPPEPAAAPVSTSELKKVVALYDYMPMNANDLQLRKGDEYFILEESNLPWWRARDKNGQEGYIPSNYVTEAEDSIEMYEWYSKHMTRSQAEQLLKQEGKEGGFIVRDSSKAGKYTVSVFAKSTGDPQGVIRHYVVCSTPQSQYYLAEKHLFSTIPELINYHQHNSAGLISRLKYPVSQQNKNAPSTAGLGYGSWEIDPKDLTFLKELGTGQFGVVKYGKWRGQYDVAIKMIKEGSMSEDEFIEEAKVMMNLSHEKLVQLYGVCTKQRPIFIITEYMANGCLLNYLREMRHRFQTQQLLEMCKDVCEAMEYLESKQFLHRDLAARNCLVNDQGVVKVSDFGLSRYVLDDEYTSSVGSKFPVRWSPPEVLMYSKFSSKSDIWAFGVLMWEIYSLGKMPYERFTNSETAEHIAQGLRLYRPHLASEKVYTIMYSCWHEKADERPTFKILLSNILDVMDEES

As to `CC(C)(C)c1ccc(C(=O)Nc2ccc(-c3ccnc4[nH]nc(N[C@@H]5CCNC5)c34)cc2F)cc1` [Compound 42, 4-tert-butyl-N-[2-fluoro-4-(3-{[(3R)-pyrrolidin-3-yl]amino}-1H-pyrazolo[3,4-b]pyridin-4-yl)phenyl]benzamide], the IC50 on TEC, on Btk (setting [1]) and at panel of kinases was greater than 10000 nM each time.
As for `CN(C)C(=O)N[C@@H]1CCN(c2n[nH]c3nccc(-c4ccc(CNC(=O)c5noc(C(C)(C)C)n5)c(F)c4)c23)C1` [Example 132, 5-tert-butyl-N-[(4-{3-[(3R)-3-[(dimethylcarbamoyl)amino]pyrrolidin-1-yl]-1H-pyrazolo[3,4-b]pyridin-4-yl}-2-fluorophenyl)methyl]-1,2,4-oxaidazole-3-carboxamide], the IC50 was 806 nM against TEC, less than 10 nM at Btk (setting [2]), 0.889 nM at Btk (setting [1]) and 1280 nM at panel of kinases. Further, at TEC, the TEC/Btk is listed as 907.
`CC(C)(C)c1nc(C(=O)NC2(c3ccc(-c4ccnc5[nH]nc(N[C@@H]6CCNC6)c45)cc3)CC2)no1` [Compound 1, 5-tert-butyl-N-{1-[4-(3-{[(3R)-pyrrolidin-3-yl]amino}-1H-pyrazolo[3,4-b]pyridin-4-yl)phenyl]cyclopropyl}-1,2,4-oxadiazole-3-carboxamide]: the IC50 against TEC is greater than 10000 nM; on Btk (setting [1]), 57.7 nM; on panel of kinases, greater than 10000 nM. On TEC, the TEC/Btk is given as greater than 100.
Regarding `C=CC(=O)N1CCC(Nc2n[nH]c3nccc(-c4ccc(CNCc5noc(C(C)(C)C)n5)c(F)c4)c23)C1` (centres unmarked) [Example 310, 1-[3-({4-[4-({[(5-tert-butyl-1,2,4-oxadiazol-3-yl)methyl]amino}methyl)-3-fluorophenyl]-1H-pyrazolo[3,4-b]pyridin-3-yl}amino)pyrrolidin-1-yl]prop-2-en-1-one], the IC50 against TEC stood at 3040 nM; at Btk (setting [1]), 106 nM; at panel of kinases, 471 nM.
Take `C=CC(=O)N1CC[C@@H](Nc2n[nH]c3nccc(-c4ccc(CNC(=O)c5nc(C(C)(C)C)n[nH]5)c(F)c4)c23)C1` [Example 82, 3-tert-butyl-N-{[2-fluoro-4-(3-{[(3R)-1-(prop-2-enoyl)pyrrolidin-3-yl]amino}-1H-pyrazolo[3,4-b]pyridin-4-yl)phenyl]methyl}-1H-1,2,4-triazole-5-carboxamide]: the IC50 at TEC came out at 357 nM; at Btk (setting [1]), 30.6 nM; on panel of kinases it was 113 nM. The TEC/Btk on TEC turned out to be 12.
For `C=CC(=O)N1CC[C@@H](Nc2n[nH]c3nccc(-c4ccc(NC(=O)Nc5noc(C(C)(C)C)n5)c(F)c4)c23)C1` [Example 156, 3-(5-tert-butyl-1,2,4-oxadiazol-3-yl)-1-[2-fluoro-4-(3-{[(3R)-1-(prop-2-enoyl)pyrrolidin-3-yl]amino}-1H-pyrazolo[3,4-b]pyridin-4-yl)phenyl]urea], in that order: 407 nM, 639 nM, 111 nM and 1.
Turning to `CC(C)(C)c1nc(C(=O)NCc2cc(F)cc(-c3ccnc4[nH]nc(N[C@@H]5CCNC5)c34)c2)no1` [Example 74, 5-tert-butyl-N-{[3-fluoro-5-(3-{[(3R)-pyrrolidin-3-yl]amino}-1H-pyrazolo[3,4-b]pyridin-4-yl)phenyl]methyl}-1,2,4-oxadiazole-3-carboxamide], the IC50 at TEC, on Btk (setting [1]) and on panel of kinases was greater than 10000 nM in each case.
Regarding `C=CC(=O)N[C@@H]1CCN(c2n[nH]c3nccc(-c4ccc(CNC(=O)c5noc(C(C)C)n5)c(F)c4)c23)C1` [Example 367, N-{[2-fluoro-4-(3-{(3R)-3-[(prop-2-enoyl)amino]pyrrolidin-1-yl}-1H-pyrazolo[3,4-b]pyridin-4-yl)phenyl]methyl}-5-(propan-2-yl)-1,2,4-oxadiazole-3-carboxamide], the IC50 on TEC stood at 47.4 nM; at Btk (setting [1]), 0.058 nM; at panel of kinases it was 26.5 nM.
In the case of `CC(C)(C)c1ncc(C(=O)NCc2ccc(-c3ccnc4[nH]nc(N[C@H]5CC[C@H](O)CC5)c34)cc2F)o1` [Compound 39, 2-tert-butyl-N-{[2-fluoro-4-(3-{[(1r,4r)-4-hydroxycyclohexyl]amino}-1H-pyrazolo[3,4-b]pyridin-4-yl)phenyl]methyl}-1,3-oxazole-5-carboxamide], the IC50 against TEC worked out at 4680 nM; on Btk (setting [1]), 63.6 nM; at panel of kinases, 3820 nM. In addition, the TEC/Btk at TEC is on record as 74.
For `C[C@H]1CC[C@@H](Nc2n[nH]c3nccc(-c4ccc(CNC(=O)c5noc(C(C)(C)C)n5)c(F)c4)c23)CN1C(=O)CO` [Example 227, 5-tert-butyl-N-{[2-fluoro-4-(3-{[(3R,6S)-1-(hydroxyacetyl)-6-methylpiperidin-3-yl]amino}-1H-pyrazolo[3,4-b]pyridin-4-yl)phenyl]methyl}-1,2,4-oxadiazole-3-carboxamide], in that order: 205 nM, 0.458 nM, 704 nM and 448.
Take `CC(C)c1nc(C(=O)NCc2ccc(-c3ccnc4[nH]nc(N5CC[C@@H](N)C5)c34)cc2F)co1` [Example 357, N-[(4-{3-[(3R)-3-aminopyrrolidin-1-yl]-1H-pyrazolo[3,4-b]pyridin-4-yl}-2-fluorophenyl)methyl]-2-(propan-2-yl)-1,3-oxazole-4-carboxamide]: the IC50 came to 4880 nM at TEC, 31 nM on Btk (setting [1]) and 1770 nM at panel of kinases.
Consider `C=CC(=O)N1CC[C@@H](Nc2n[nH]c3nccc(-c4cccc(NC(=O)c5ccc(C(C)(C)C)cc5)c4)c23)C1` [Example 263, 4-tert-butyl-N-[3-(3-{[(3R)-1-(prop-2-enoyl)pyrrolidin-3-yl]amino}-1H-pyrazolo[3,4-b]pyridin-4-yl)phenyl]benzamide], for which the half-maximal inhibitory concentration (IC50) turned out to be 1070 nM against TEC, 11.6 nM on Btk (setting [1]) and 440 nM at panel of kinases. The TEC/Btk at TEC came to 092.
The corresponding values for `C[C@H]1CC[C@@H](Nc2n[nH]c3nccc(-c4ccc(CNC(=O)c5noc(C(C)(C)C)n5)cc4)c23)CN1C(=O)N(C)C` [Example 256, (2S,5R)-5-{[4-(4-{[(5-tert-butyl-1,2,4-oxadiazole-3-carbonyl)amino]methyl}phenyl)-1H-pyrazolo[3,4-b]pyridin-3-yl]amino}-N,N,2-trimethylpiperidine-1-carboxamide] are 3590 nM, 8.35 nM, 5440 nM and 430.
On to `C=CC(=O)N1CC[C@@H](Nc2n[nH]c3nccc(-c4ccc(CNC(=O)c5cnc(C(C)C)o5)c(F)c4)c23)C1` [Example 176, N-{[2-fluoro-4-(3-{[(3R)-1-(prop-2-enoyl)pyrrolidin-3-yl]amino}-1H-pyrazolo[3,4-b]pyridin-4-yl)phenyl]methyl}-2-(propan-2-yl)-1,3-oxazole-5-carboxamide], for which the IC50 against TEC is 149 nM; at Btk (setting [2]), less than 10 nM; at Btk (setting [1]), 1.49 nM; at panel of kinases it was 146 nM. Also, the TEC/Btk on TEC came to 100.
